Reference: patent US12584919B2, “Enhancing anti-tumor response in melanoma cells with defective sting signaling” (H. Lee Moffitt Cancer Center and Research Institute, Inc., priority 2018, dated 2026)
“Also recorded” adds a separate entry of the source.

Legend:
[1] = tested on: human melanoma cell lines (WM39, WM3629, 526-MEL) as targets, TIL 195 as effector cells; experiment: 51Cr release cytotoxicity assay, lysis of melanoma targets by TIL
Protocol: After 4 hours, supernatant was harvested and measured in Trilux (PerkinElmer). Each point represented the average of quadruplicate wells and percentage of specific lysis was calculated by: (experimental release—minimum release)/(maximum release-minimum release)×100.

[2] = tested on: human melanoma cell lines; experiment: IRF3 phosphorylation by immunoblot after STING agonist stimulation; type: cell-based
Description: Proteins were extracted with RIPA buffer (ThermoFisher Scientific) containing protease inhibitors (Thermo Scientific). Protein extracts from NK92, a natural killer cell line, was used as a positive control for the expression of STING and cGAS (Souza-Fonseca-Guimaraes F, et al. J Biol Chem. 2013 288:10715-21). Equal amounts of proteins were resolved on SDS-PAGE gels (Bio-Rad) and transferred to polyvinylidene fluoride (PVDF) membranes (Bio-Rad). After blocking with 5% non-fat dry milk, membranes were incubated with antibodies specific for STING, cGAS, p-IRF3, IRF3 (all from Cell Signaling) and β-actin (Sigma Aldrich). Following incubation with appropriate secondary antibodies, bands were visualized using an enhanced chemiluminescence detection system.

[3] = tested on: human melanoma cell lines; experiment: Flow cytometry of MHC class I (HLA-A.B.C) surface expression; type: cell-based
Protocol: DAPI (Sigma-Aldrich) was used as a viability dye. Sample acquisition was performed on an LSR II flow cytometer (BD Biosciences), and the data were analyzed using FlowJo software (Tree Star).

[4] = tested on: human melanoma cell lines (WM39, WM3629, 526-MEL) co-cultured with HLA-matched TIL; experiment: Co-culture assay of melanoma cells with HLA-matched TIL, cytokine release by ELISA
Protocol: TIL production of IFN-γ and ^51Cr release was assessed for cytotoxicity.
After 24 hours of incubation at 37° C. in a humidified CO2 incubator, the supernatant was harvested for detection of IFN-γ release using enzyme-linked immunosorbent assay (Human IFN-γ Quantikine ELISA Kit, R&D Systems). For the MHC class I blocking assay, melanoma cells were incubated with W6/32 (anti-HLA-A,B,C monoclonal antibody, Biolegend) at a final concentration of 50 μg/mL for 1 hour at 37° C. prior to the addition of TIL.

[5] = tested on: human melanoma cell lines; experiment: CXCL10 and IFN-β release (ELISA) after STING agonist stimulation; type: cell-based
[6] = tested on: melanoma cell lines lacking STING; experiment: CXCL-10 induction in 5AZADC-treated melanoma cells after STING agonist stimulation; settings: 5AZADC-treated cell lines lacking STING, then stimulated with the STING agonist 2′3′-cGAMP
[7] = tested on: melanoma cell lines lacking STING; experiment: STING/cGAS expression by immunoblot after demethylating agent treatment
Description: STING and cGAS expression were examined in a panel of human melanoma cell lines by immunoblot.

[8] = WM9 and WM39 cell lines, 2′3′-cGAMP stimulation

## Nc1nc2c(ncn2[C@@H]2O[C@@H]3COP(=O)(O)O[C@H]4[C@@H](O)[C@H](n5cnc6c(N)ncnc65)O[C@@H]4COP(=O)(O)O[C@@H]2[C@@H]3O)c(=O)[nH]1 [2′3′-cGAMP, 2′3′-cyclic-GMP-AMP]
[1]; 526-MEL cells
  lysis by TIL 195 (lytic units): did not induce any increase in lysis
[1]; 526-MEL targets, defective in STING signaling
  specific lysis by TIL 195: did not alter their specific lysis
[1]; Example 2, STING-responsive cell lines with HLA-matched TILs, p<0.05
  augmentation of TIL cytotoxicity: > 2 fold
[1]; WM39 and MART-1-pulsed WM39 cells vs their controls
  increase in lytic potential of TIL 195 (lytic units): > 10 fold
[1]; WM39 and MART-1 pulsed WM39 targets, p<0.05
  increase in lysis by TIL 195: > 2 fold
[1]; WM39 and sh-control targets
  cytolytic activity of TIL 195: increased cytolytic activity
[1]; WM39 target cells with or without 2′3′-cGAMP in the absence of TIL
  cytotoxicity of the STING agonist alone: did not result in any major cytotoxicity
[1]; WM3629 cells
  lysis by TIL 195 (lytic units): greater lysis
[1]; WM3629 targets, p<0.05 vs controls
  cytotoxicity (lysis by TIL 195): Increased
[1]; sh-STING (STING knockdown WM39) targets
  cytolytic activity of TIL 195: complete blockade of this response
[2]; 5 STING-positive cell lines (WM164, WM9, WM39, A375, WM1366), 2′3′-cGAMP 10 μg/ml with Lipofectamine, 4 h
  phosphorylation of IRF3: 4 of 5 STING-positive cell lines
[2]; WM2032 (STING-negative) cell line, 2′3′-cGAMP stimulated
  phosphorylation of IRF3: not detected
[3]; 1205Lu, WM266-4, WM2032 and 526-MEL cell lines with impaired STING signaling
  expression of MHC class I: no significant changes
[3]; Example 1, human melanoma cell lines (FIG. 14)
  MHC-I/HLA-A.B.C expression: upregulation of MHC I
[3]; WM39 and sh-control cells, p<0.01
  higher surface expression of MHC class I: more than 2.5 fold
[3]; sh-STING (STING knockdown WM39) cells
  surface expression of MHC class I: did not cause any increase in MHC class I
[4]; 526-MEL / TIL 19 co-culture
  IFN-γ secretion: did not induce any increased IFN-γ secretion
[4]; 526-MEL / TIL 195 co-cultures
  IFN-γ release: no increase in IFN-γ release
[4]; Example 2, STING-positive cell lines responding strongly, cultured with HLA-matched TILs, p<0.01
  increase in IFN-γ secretion: ≤ 15 fold
[4]; MART-1 pulsed WM39 / TIL 195 co-culture, p<0.001
  IFN-γ secretion by TIL: significantly increased
[4]; MART-1 pulsed WM39 with two additional HLA-A2 TIL, p<0.01 vs untreated co-cultures
  IFN-γ production by TIL: higher levels of IFN-γ production
[4]; WM39 / TIL 19 co-cultures, p<0.001
  IFN-γ release, higher than the untreated group: 24 fold
[4]; WM39 / TIL 195 and sh-control / TIL 195 co-cultures, P<0.05
  higher IFN-γ release: more than 25 fold
[4]; WM39 / TIL 195 co-culture groups with 2′3′-cGAMP
  IFN-β in co-culture supernatants: Induction of IFN-β
[4]; WM39 / TIL 195 co-culture, with vs without 2′3′-cGAMP
  IFN-γ secretion by TIL: significantly enhanced
[4]; WM3629 / TIL 195 co-cultures, p<0.01
  IFN-γ release: increased
[4]; control group containing TIL with 2′3′-cGAMP, no tumor cells
  IFN-β induction: not observed
[4]; sh-STING (STING knockdown WM39) / TIL 195 co-cultures
  IFN-γ induction: no increase in IFN-γ induction
[5]; 526-MEL (HLA-A2) cell line
  response to 2′3′-cGAMP stimulation (p-IRF3, CXCL10, IFN-β): did not respond
[5]; [8]
  CXCL10 induction in cell culture supernatants: detectable levels
  IFN-β induction in cell culture supernatants: detectable levels

## Nc1ncn([C@H]2C[C@H](O)[C@@H](CO)O2)c(=O)n1 [5AZADC, 5-aza-2′-deoxycytidine]
[6]
  CXCL-10 induction: induction of CXCL-10; also recorded: production of CXCL-10; also recorded: STING-dependent CXCL-10 induction
[7]; 5AZADC-treated melanoma cell lines lacking STING
  STING expression: Partial induction of STING expression; also recorded: reconstitution of STING expression
[7]; A375, G361, MeWO, SK-MEL-5 and other human melanoma cell lines with and without 5AZADC (FIG. 7)
  STING and cGAS expression: partially recapitulated
